# Measurements from ChEMBL document CHEMBL4052740, “Potent antiobesity effect of a short-length peptide YY-analogue continuously administered in mice” (Bioorg Med Chem Lett, 2017).
# How the values were obtained:
# [1] = biological target: T1, Neuropeptide Y receptor type 2 (Homo sapiens, UniProt P49146); experiment: Displacement of [125I]peptide YY from human Y2 receptor expressed in CHO cell membranes after 60 mins by TopCount scintillation counting analysis
# T1 sequence (P49146 whole entry): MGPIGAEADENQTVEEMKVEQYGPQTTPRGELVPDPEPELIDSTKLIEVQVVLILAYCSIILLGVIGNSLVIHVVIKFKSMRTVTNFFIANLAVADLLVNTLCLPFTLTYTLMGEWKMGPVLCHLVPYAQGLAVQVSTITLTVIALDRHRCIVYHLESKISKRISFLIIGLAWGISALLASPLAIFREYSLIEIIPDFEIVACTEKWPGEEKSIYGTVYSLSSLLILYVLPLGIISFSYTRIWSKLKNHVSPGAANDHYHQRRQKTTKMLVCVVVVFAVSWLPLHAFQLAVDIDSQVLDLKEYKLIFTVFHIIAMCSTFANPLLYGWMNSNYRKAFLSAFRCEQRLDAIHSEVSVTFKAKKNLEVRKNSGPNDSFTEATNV
# [2] = biological target: T1, Neuropeptide Y receptor type 2; experiment: Agonist activity at human Y2 receptor expressed in CHO cell membranes after 120 mins by [35S]GTPgammaS binding assay; type: functional
# Mus musculus = experiment: Anorectic activity in C57BL/6J mouse assessed as inhibition of food intake at 1 mg/kg/day, sc administered by infusion as continuous dosing for 3 days relative to 1 mg/kg/day PYY (3 to 36 residues); type: functional; details: 72 h
compound,measurement,setting,value
CC(=O)N[C@@H](CO)C(=O)N1CCC[C@@H]1C(=O)N[C@@H](CCCNC(=N)N)C(=O)N[C@@H](CCC(N)=O)C(=O)N[C@@H](CC1CCCCC1)C(=O)N[C@@H](CC1CCCCC1)C(=O)N[C@@H](CC(N)=O)C(=O)N[C@@H](CC(C)C)C(=O)NC(C)(C)C(=O)N[C@H](C(=O)N[C@@H](CCCNC(=N)N)C(=O)N[C@@H](CCC(N)=O)C(=O)N[C@@H](CCCNC(=N)N)C(=O)N[C@@H](CC1CCCCC1)C(N)=O)[C@@H](C)O,IC50,[1],1.1 nM
same,EC50,[2],0.42 nM
same,inhibition in vivo at 1 mg/kg/day,Mus musculus,55%
CCCC[C@H](NC(=O)[C@H](CC(N)=O)NC(=O)[C@H](CC1CCCCC1)NC(=O)[C@H](CC1CCCCC1)NC(=O)[C@H](Cc1cnc[nH]1)NC(=O)[C@H](CCCNC(=N)N)NC(=O)[C@H]1CCCN1C(=O)[C@H](CO)NC(C)=O)C(=O)NC(C)(C)C(=O)N[C@H](C(=O)N[C@@H](CCCNC(=N)N)C(=O)N[C@@H](CCC(N)=O)C(=O)N[C@@H](CCCNC(=N)N)C(=O)N[C@@H](CC1CCCCC1)C(N)=O)[C@@H](C)O,IC50,[1],1.3 nM
same,EC50,[2],0.21 nM
CC(=O)N[C@@H](CO)C(=O)N1CCC[C@@H]1C(=O)N[C@@H](CCCNC(=N)N)C(=O)N[C@@H](Cc1cnc[nH]1)C(=O)N[C@@H](Cc1ccc(O)cc1)C(=O)N[C@@H](CC1CCCCC1)C(=O)N[C@@H](CC(N)=O)C(=O)N[C@@H](CC(C)C)C(=O)NC(C)(C)C(=O)N[C@H](C(=O)N[C@@H](CCCNC(=N)N)C(=O)N[C@@H](CCC(N)=O)C(=O)N[C@@H](CCCNC(=N)N)C(=O)N[C@@H](CC1CCCCC1)C(N)=O)[C@@H](C)O,IC50,[1],5.3 nM
same,EC50,[2],2.5 nM
CC(=O)N[C@@H](CO)C(=O)N1CCC[C@@H]1C(=O)N[C@@H](CCCNC(=N)N)C(=O)N[C@@H](Cc1cnc[nH]1)C(=O)N[C@@H](Cc1ccncc1)C(=O)N[C@@H](CC1CCCCC1)C(=O)N[C@@H](CC(N)=O)C(=O)N[C@@H](CC(C)C)C(=O)NC(C)(C)C(=O)N[C@H](C(=O)N[C@@H](CCCNC(=N)N)C(=O)N[C@@H](CCC(N)=O)C(=O)N[C@@H](CCCNC(=N)N)C(=O)N[C@@H](CC1CCCCC1)C(N)=O)[C@@H](C)O,IC50,[1],6 nM
same,EC50,[2],1.8 nM
CC(=O)N[C@@H](CO)C(=O)N1CCC[C@@H]1C(=O)N[C@@H](CCCNC(=N)N)C(=O)N[C@@H](Cc1ccncc1)C(=O)N[C@@H](CC1CCCCC1)C(=O)N[C@@H](CC1CCCCC1)C(=O)N[C@@H](CC(N)=O)C(=O)N[C@@H](CC(C)C)C(=O)NC(C)(C)C(=O)N[C@H](C(=O)N[C@@H](CCCNC(=N)N)C(=O)N[C@@H](CCC(N)=O)C(=O)N[C@@H](CCCNC(=N)N)C(=O)N[C@@H](CC1CCCCC1)C(N)=O)[C@@H](C)O,IC50,[1],0.49 nM
same,EC50,[2],0.19 nM
same,inhibition in vivo at 1 mg/kg/day,Mus musculus,72%
CC(=O)N[C@@H](CO)C(=O)N1CCC[C@@H]1C(=O)N[C@@H](CCCNC(=N)N)C(=O)N[C@@H](Cc1cnc[nH]1)C(=O)N[C@@H](CC1CCCCC1)C(=O)N[C@@H](CC1CCCCC1)C(=O)N[C@@H](CC(N)=O)C(=O)N[C@@H](CCCNC(=N)N)C(=O)NC(C)(C)C(=O)N[C@H](C(=O)N[C@@H](CCCNC(=N)N)C(=O)N[C@@H](CCC(N)=O)C(=O)N[C@@H](CCCNC(=N)N)C(=O)N[C@@H](CC1CCCCC1)C(N)=O)[C@@H](C)O,IC50,[1],0.6 nM
same,EC50,[2],0.16 nM
same,inhibition in vivo at 1 mg/kg/day,Mus musculus,59%
CC(=O)N[C@@H](CO)C(=O)N1CCC[C@@H]1C(=O)N[C@@H](CCCNC(=N)N)C(=O)N[C@@H](Cc1cnc[nH]1)C(=O)N[C@@H](CC1CCCCC1)C(=O)N[C@@H](Cc1ccncc1)C(=O)N[C@@H](CC(N)=O)C(=O)N[C@@H](CC(C)C)C(=O)NC(C)(C)C(=O)N[C@H](C(=O)N[C@@H](CCCNC(=N)N)C(=O)N[C@@H](CCC(N)=O)C(=O)N[C@@H](CCCNC(=N)N)C(=O)N[C@@H](CC1CCCCC1)C(N)=O)[C@@H](C)O,IC50,[1],2.5 nM
same,EC50,[2],0.75 nM
same,inhibition in vivo at 1 mg/kg/day,Mus musculus,41%
CC(=O)N[C@@H](CO)C(=O)N1CCC[C@@H]1C(=O)N[C@@H](CCCNC(=N)N)C(=O)N[C@@H](Cc1cnc[nH]1)C(=O)NC(C)(C)C(=O)N[C@@H](CC1CCCCC1)C(=O)N[C@@H](CC(N)=O)C(=O)N[C@@H](CC(C)C)C(=O)NC(C)(C)C(=O)N[C@H](C(=O)N[C@@H](CCCNC(=N)N)C(=O)N[C@@H](CCC(N)=O)C(=O)N[C@@H](CCCNC(=N)N)C(=O)N[C@@H](CC1CCCCC1)C(N)=O)[C@@H](C)O,IC50,[1],2.6 nM
same,EC50,[2],1.7 nM
CC(=O)N[C@@H](CO)C(=O)N1CCC[C@@H]1C(=O)N[C@@H](CCCNC(=N)N)C(=O)N[C@@H](Cc1cnc[nH]1)C(=O)N[C@@H](CC1CCCCC1)C(=O)N[C@@H](CC1CCCCC1)C(=O)N[C@@H](CC(N)=O)C(=O)N[C@@H](CCCN)C(=O)NC(C)(C)C(=O)N[C@H](C(=O)N[C@@H](CCCNC(=N)N)C(=O)N[C@@H](CCC(N)=O)C(=O)N[C@@H](CCCNC(=N)N)C(=O)N[C@@H](CC1CCCCC1)C(N)=O)[C@@H](C)O,IC50,[1],1.2 nM
same,EC50,[2],0.068 nM
same,inhibition in vivo at 1 mg/kg/day,Mus musculus,22%
CC(=O)N[C@@H](CO)C(=O)N1CCC[C@@H]1C(=O)N[C@@H](CCCNC(=N)N)C(=O)N[C@@H](Cc1cnc[nH]1)C(=O)N[C@@H](CCC(N)=O)C(=O)N[C@@H](CC1CCCCC1)C(=O)N[C@@H](CC(N)=O)C(=O)N[C@@H](CC(C)C)C(=O)NC(C)(C)C(=O)N[C@H](C(=O)N[C@@H](CCCNC(=N)N)C(=O)N[C@@H](CCC(N)=O)C(=O)N[C@@H](CCCNC(=N)N)C(=O)N[C@@H](CC1CCCCC1)C(N)=O)[C@@H](C)O,IC50,[1],8.7 nM
same,EC50,[2],4.4 nM
CC(=O)N[C@@H](CO)C(=O)N1CCC[C@@H]1C(=O)N[C@@H](CCCNC(=N)N)C(=O)N[C@@H](Cc1cnc[nH]1)C(=O)N[C@@H](CC1CCCCC1)C(=O)N[C@@H](CC1CCCCC1)C(=O)N[C@@H](CC(N)=O)C(=O)N[C@@H](CO)C(=O)NC(C)(C)C(=O)N[C@H](C(=O)N[C@@H](CCCNC(=N)N)C(=O)N[C@@H](CCC(N)=O)C(=O)N[C@@H](CCCNC(=N)N)C(=O)N[C@@H](CC1CCCCC1)C(N)=O)[C@@H](C)O,IC50,[1],2.3 nM
same,EC50,[2],0.6 nM
CC(=O)N[C@@H](CO)C(=O)N1CCC[C@@H]1C(=O)N[C@@H](CCCNC(=N)N)C(=O)N[C@@H](Cc1cnc[nH]1)C(=O)N[C@@H](Cc1cnc[nH]1)C(=O)N[C@@H](CC1CCCCC1)C(=O)N[C@@H](CC(N)=O)C(=O)N[C@@H](CC(C)C)C(=O)NC(C)(C)C(=O)N[C@H](C(=O)N[C@@H](CCCNC(=N)N)C(=O)N[C@@H](CCC(N)=O)C(=O)N[C@@H](CCCNC(=N)N)C(=O)N[C@@H](CC1CCCCC1)C(N)=O)[C@@H](C)O,IC50,[1],11 nM
same,EC50,[2],3.8 nM
CC(=O)N[C@@H](CO)C(=O)N1CCC[C@@H]1C(=O)N[C@@H](CCCNC(=N)N)C(=O)N[C@@H](Cc1cnc[nH]1)C(=O)N[C@@H](CC1CCCCC1)C(=O)N[C@@H](Cc1cnc[nH]1)C(=O)N[C@@H](CC(N)=O)C(=O)N[C@@H](CC(C)C)C(=O)NC(C)(C)C(=O)N[C@H](C(=O)N[C@@H](CCCNC(=N)N)C(=O)N[C@@H](CCC(N)=O)C(=O)N[C@@H](CCCNC(=N)N)C(=O)N[C@@H](CC1CCCCC1)C(N)=O)[C@@H](C)O,IC50,[1],2.8 nM
same,EC50,[2],1 nM
CC(=O)N[C@@H](CO)C(=O)N1CCC[C@@H]1C(=O)N[C@@H](CCCNC(=N)N)C(=O)N[C@@H](Cc1cnc[nH]1)C(=O)N[C@@H](CC1CCCCC1)C(=O)N[C@@H](CC1CCCCC1)C(=O)N[C@@H](CC(N)=O)C(=O)N[C@@H](Cc1ccncc1)C(=O)NC(C)(C)C(=O)N[C@H](C(=O)N[C@@H](CCCNC(=N)N)C(=O)N[C@@H](CCC(N)=O)C(=O)N[C@@H](CCCNC(=N)N)C(=O)N[C@@H](CC1CCCCC1)C(N)=O)[C@@H](C)O,IC50,[1],3 nM
same,EC50,[2],0.48 nM
